In patent publication US8716303B2, “N-(hetero)aryl-pyrrolidine derivatives of pyrazol-4-yl-pyrrolo[2,3-d]pyrimidines and pyrrol-3-yl-pyrrolo[2,3-d]pyrimidines as janus kinase inhibitors” (Incyte Corporation, priority 2009, dated 2014):

Columns and labels:
[1] = molecular target: T1, human JAK1 (a.a. 837-1142) (Homo sapiens, UniProt P23458); test: In vitro JAK kinase assay (HTRF, phosphorylation of a biotinylated peptide), JAK1; type: biochemical
T1 construct: human JAK1 (a.a. 837-1142); His tag (N); made in house; host or cells: insect cells (baculovirus)
T1 sequence (P23458 849-1154): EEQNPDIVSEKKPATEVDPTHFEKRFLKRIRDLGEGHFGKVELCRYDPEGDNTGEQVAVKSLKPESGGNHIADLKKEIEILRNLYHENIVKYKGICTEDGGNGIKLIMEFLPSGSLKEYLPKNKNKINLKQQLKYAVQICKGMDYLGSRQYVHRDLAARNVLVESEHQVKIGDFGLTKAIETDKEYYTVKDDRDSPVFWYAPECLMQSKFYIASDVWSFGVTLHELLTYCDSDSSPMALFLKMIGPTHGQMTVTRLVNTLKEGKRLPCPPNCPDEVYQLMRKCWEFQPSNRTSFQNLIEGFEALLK
Protocol: (§1) Compounds herein were tested for inhibitory activity of JAK targets according to the following in vitro assay described in Park et al., Analytical Biochemistry 1999, 269, 94-104. The catalytic domains of human JAK1 (a.a. 837-1142), Jak2 (a.a. 828-1132) and Jak3 (a.a. 781-1124) with an N-terminal His tag were expressed using baculovirus in insect cells and purified. The catalytic activity of JAK1, JAK2 or JAK3 was assayed by measuring the phosphorylation of a biotinylated peptide. The phosphorylated peptide was detected by homogenous time resolved fluorescence (HTRF). IC50s of compounds were measured for each kinase in the 40 microL reactions that contain the enzyme, ATP and 500 nM peptide in 50 mM Tris (pH 7.8) buffer with 100 mM NaCl, 5 mM DTT, and 0.1 mg/mL (0.01%) BSA. The ATP concentration in the reactions was 90 μM for Jak1, 30 μM for Jak2 and 3 μM for Jak3 for Km conditions. For the 1 mM IC50 measurements, ATP concentration in the reactions was 1 mM. Reactions were carried out at RT for 1 h and then stopped with 20 μL 45 mM EDTA, 300 nM SA-APC, 6 nM Eu-Py20 in assay buffer (Perkin Elmer, Boston, Mass.). Binding to the Europium labeled antibody took place for 40 min and HTRF signal was measured on a Fusion plate reader (Perkin Elmer, Boston, Mass.).
(§2) Compounds herein were tested for inhibitory activity of JAK1 and JAK2 targets according to the assay of Example A (experiments run at Km or 1 mM as indicated). The symbol “+” indicates an IC50<50 nM; the symbol “++” indicates an IC50≧50 and ≦100 nM; and the symbol “+++” indicates an IC50>100 and ≦500 nM.

Jak2 (a.a. 828-1132) = molecular target: T2, Jak2 (a.a. 828-1132) (Homo sapiens, UniProt O60674); test: In vitro JAK kinase assay (HTRF, phosphorylation of a biotinylated peptide), JAK2, reported as JAK2/JAK1 ratio; type: biochemical
T2 construct: Jak2 (a.a. 828-1132); His tag (N); made in house; host or cells: insect cells (baculovirus)
T2 sequence (O60674 828-1132): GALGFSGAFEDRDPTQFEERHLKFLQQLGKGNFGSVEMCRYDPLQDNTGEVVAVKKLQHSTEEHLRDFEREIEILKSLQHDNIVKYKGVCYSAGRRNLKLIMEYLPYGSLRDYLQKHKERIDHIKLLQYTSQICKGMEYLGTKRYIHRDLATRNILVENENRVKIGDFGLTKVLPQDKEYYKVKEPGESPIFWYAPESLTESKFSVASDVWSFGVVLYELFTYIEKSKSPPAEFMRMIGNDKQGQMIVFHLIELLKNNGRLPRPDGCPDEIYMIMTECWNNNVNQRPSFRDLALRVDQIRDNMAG
Protocol: as §1, §2

[2] = Assay Conditions Km (ATP 90 μM for Jak1)
[3] = Assay Conditions Km (ATP 90 μM for Jak1, 30 μM for Jak2)

| Structure (SMILES) | IC50 [1, 2] [µM] | JAK2/JAK1 IC50 ratio (Jak2 (a.a. 828-1132); [3]) | IC50 ([1]; Assay Conditions 1 mM ATP) [µM] | JAK2/JAK1 IC50 ratio (Jak2 (a.a. 828-1132); Assay Conditions 1 mM ATP) |
| --- | --- | --- | --- | --- |
| N#CCC(C1CCN(c2ccc3c(n2)S(=O)(=O)CC3)C1)n1ccc(-c2ncnc3[nH]ccc23)c1 (single isomer, unassigned) [34, enantiomer 1] |  |  | < 0.05 | 5.6 |
| N#CCC(C1CCN(c2nccc(Cl)n2)C1)n1cc(-c2ncnc3[nH]ccc23)cn1 (single isomer, unassigned) [Example 4b, 3-[1-(4-chloropyrimidin-2-yl)pyrrolidin-3-yl]-3-[4-(7H-pyrrolo[2,3-d]pyrimidin-4-yl)-1H-pyrazol-1-yl]propanenitrile] | < 0.05 | 3.7 |  |  |
| N#CCC(C1CCN(c2nc3cc(Cl)ccc3o2)C1)n1cc(-c2ncnc3[nH]ccc23)cn1 (single isomer, unassigned) [Example 10, 3-[1-(5-chloro-1,3-benzoxazol-2-yl)pyrrolidin-3-yl]-3-[4-(7H-pyrrolo[2,3-d]pyrimidin-4-yl)-1H-pyrazol-1-yl]propanenitrile] | < 0.05 | 1.9 |  |  |
| N#CCC(C1CCN(c2nc3cnccc3o2)C1)n1cc(-c2ncnc3[nH]ccc23)cn1 (single isomer, unassigned) [Example 11, 3-(1-[1,3]oxazolo[4,5-c]pyridin-2-ylpyrrolidin-3-yl)-3-[4-(7H-pyrrolo[2,3-d]pyrimidin-4-yl)-1H-pyrazol-1-yl]propanenitrile] | < 0.05 | 2.9 |  |  |
| N#CCC(C1CCN(c2nc3cccnc3o2)C1)n1cc(-c2ncnc3[nH]ccc23)cn1 (single isomer, unassigned) [Example 13a, 3-(1-[1,3]oxazolo[5,4-b]pyridin-2-ylpyrrolidin-3-yl)-3-[4-(7H-pyrrolo[2,3-d]pyrimidin-4-yl)-1H-pyrazol-1-yl]propanenitrile] | < 0.05 | 12 |  |  |

The next lines start with the values.

| IC50 [1, 2] [µM] | JAK2/JAK1 IC50 ratio (Jak2 (a.a. 828-1132); [3]) | IC50 ([1]; Assay Conditions 1 mM ATP) [µM] | JAK2/JAK1 IC50 ratio (Jak2 (a.a. 828-1132); Assay Conditions 1 mM ATP) | Structure (SMILES) |
| --- | --- | --- | --- | --- |
| < 0.05 | 3.7 |  |  | N#CCC(C1CCN(c2nc3cccnc3o2)C1)n1ccc(-c2ncnc3[nH]ccc23)c1 (single isomer, unassigned) [32, Step 2a, enantiomer 1] |
| < 0.05 | 5.7 |  |  | N#CCC(C1CCN(c2nc3cccnc3o2)C1)n1ccc(-c2ncnc3[nH]ccc23)c1 (single isomer, unassigned) [32, Step 2a, enantiomer 2] |
| 0.05 to 0.1 | 0.2 |  |  | N#CCC(C1CCN(c2nc3cccnc3o2)C1)n1ccc(-c2ncnc3[nH]ccc23)c1 (single isomer, unassigned) [32, Step 2b (racemate)] |
|  |  | < 0.05 | 13.8 | N#CCC(C1CCN(c2ccc3c(n2)S(=O)(=O)CC3)C1)n1ccc(-c2ncnc3[nH]ccc23)c1 (single isomer, unassigned) [34, enantiomer 2] |
|  |  | < 0.05 | 40.0 | N#CCC(C1CCN(c2scc(C#N)c2C#N)C1)n1ccc(-c2ncnc3[nH]ccc23)c1 (single isomer, unassigned) [81 enantiomer 1] |
|  |  | < 0.05 | 8.1 | N#CCC(C1CCN(c2scc(C#N)c2C#N)C1)n1ccc(-c2ncnc3[nH]ccc23)c1 (single isomer, unassigned) [81 enantiomer 2] |
| < 0.05 | 8.8 |  |  | N#CCC(C1CCN(c2nccc(Cl)n2)C1)n1cc(-c2ncnc3[nH]ccc23)cn1 (single isomer, unassigned) [Example 4a, 3-[1-(4-chloropyrimidin-2-yl)pyrrolidin-3-yl]-3-[4-(7H-pyrrolo[2,3-d]pyrimidin-4-yl)-1H-pyrazol-1-yl]propanenitrile] |
| < 0.05 | 2.4 |  |  | N#CCC(C1CCN(c2nc3ncccc3o2)C1)n1cc(-c2ncnc3[nH]ccc23)cn1 (single isomer, unassigned) [Example 12, 3-(1-[1,3]oxazolo[4,5-b]pyridin-2-ylpyrrolidin-3-yl)-3-[4-(7H-pyrrolo[2,3-d]pyrimidin-4-yl)-1H-pyrazol-1-yl]propanenitrile] |
